Values joined by “and” are separate entries in the source; they are usually repeats but may differ in a detail not shown here. Identical values can stand only once.
Target: T1, Nav1.7 (or SCN9A) channel; HEK cells stably transfected with hSCN9A (Homo sapiens, UniProt Q15858)
T1 construct: expressed in transfected cells
Experiment: Nav1.7 block, PatchXpress 7000 automated whole-cell voltage clamp, estimated IC50 (EIC50)
Format: cell-based
Conditions: PatchXpress platform; hSCN9A HEK cells held at V1/2 of inactivation; estimated IC50

T1 sequence (Q15858 whole entry): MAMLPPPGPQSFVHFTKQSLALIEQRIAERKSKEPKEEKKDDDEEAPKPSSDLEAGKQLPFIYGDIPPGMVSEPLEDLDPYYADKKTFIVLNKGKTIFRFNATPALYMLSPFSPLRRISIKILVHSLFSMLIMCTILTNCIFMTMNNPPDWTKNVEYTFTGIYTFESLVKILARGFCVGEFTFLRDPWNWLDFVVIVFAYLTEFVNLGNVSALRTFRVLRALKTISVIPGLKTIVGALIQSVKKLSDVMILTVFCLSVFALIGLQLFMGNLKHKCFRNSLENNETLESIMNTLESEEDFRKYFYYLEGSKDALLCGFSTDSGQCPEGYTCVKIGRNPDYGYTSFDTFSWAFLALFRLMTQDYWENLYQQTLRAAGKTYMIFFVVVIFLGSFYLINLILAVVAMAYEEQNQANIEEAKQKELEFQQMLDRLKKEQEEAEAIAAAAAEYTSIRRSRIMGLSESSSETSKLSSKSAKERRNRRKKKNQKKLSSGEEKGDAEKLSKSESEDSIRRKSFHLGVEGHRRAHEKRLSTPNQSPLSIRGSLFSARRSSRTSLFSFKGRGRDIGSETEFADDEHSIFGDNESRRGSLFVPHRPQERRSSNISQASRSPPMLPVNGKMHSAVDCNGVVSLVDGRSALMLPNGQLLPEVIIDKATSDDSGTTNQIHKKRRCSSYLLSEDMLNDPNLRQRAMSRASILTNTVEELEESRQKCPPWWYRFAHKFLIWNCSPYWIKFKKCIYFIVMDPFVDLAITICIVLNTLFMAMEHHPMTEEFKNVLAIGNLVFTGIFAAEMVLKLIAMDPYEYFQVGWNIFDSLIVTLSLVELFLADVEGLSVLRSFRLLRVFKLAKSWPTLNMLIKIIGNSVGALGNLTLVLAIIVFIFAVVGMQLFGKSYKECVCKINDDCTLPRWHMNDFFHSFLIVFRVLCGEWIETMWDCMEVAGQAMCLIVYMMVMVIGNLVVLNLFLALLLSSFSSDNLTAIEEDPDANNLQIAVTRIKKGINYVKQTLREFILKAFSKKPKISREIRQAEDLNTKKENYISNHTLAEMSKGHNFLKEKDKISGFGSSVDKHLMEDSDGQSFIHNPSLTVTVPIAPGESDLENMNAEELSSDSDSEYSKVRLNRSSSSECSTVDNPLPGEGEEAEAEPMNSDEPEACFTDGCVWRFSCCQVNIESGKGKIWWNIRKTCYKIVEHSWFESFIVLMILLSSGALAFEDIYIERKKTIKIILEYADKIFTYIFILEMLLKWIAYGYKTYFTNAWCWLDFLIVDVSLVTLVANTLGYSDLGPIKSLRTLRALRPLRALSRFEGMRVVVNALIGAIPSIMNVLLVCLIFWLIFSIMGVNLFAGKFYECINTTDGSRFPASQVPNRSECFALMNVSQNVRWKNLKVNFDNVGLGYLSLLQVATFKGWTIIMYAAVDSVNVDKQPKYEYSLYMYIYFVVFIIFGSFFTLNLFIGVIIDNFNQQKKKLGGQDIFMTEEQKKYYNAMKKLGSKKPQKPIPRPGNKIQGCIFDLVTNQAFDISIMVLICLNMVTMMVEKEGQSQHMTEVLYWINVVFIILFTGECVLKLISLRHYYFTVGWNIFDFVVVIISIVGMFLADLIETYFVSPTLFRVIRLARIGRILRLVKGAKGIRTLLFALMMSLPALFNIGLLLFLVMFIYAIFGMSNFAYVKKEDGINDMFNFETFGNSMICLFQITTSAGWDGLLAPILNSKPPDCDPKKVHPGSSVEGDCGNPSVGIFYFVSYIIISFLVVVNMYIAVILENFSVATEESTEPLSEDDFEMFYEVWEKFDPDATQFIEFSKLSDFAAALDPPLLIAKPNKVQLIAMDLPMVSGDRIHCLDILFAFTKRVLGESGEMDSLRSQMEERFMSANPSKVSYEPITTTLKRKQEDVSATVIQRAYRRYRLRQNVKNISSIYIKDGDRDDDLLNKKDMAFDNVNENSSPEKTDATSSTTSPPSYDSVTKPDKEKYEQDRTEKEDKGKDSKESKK

Row | Compound | IC50
1 | N#Cc1cc(S(=O)(=O)Nc2ncns2)ccc1Oc1cc(C(F)(F)F)nn1Cc1ccccc1 [Example 80, 4-{[1-benzyl-3-(trifluoromethyl)-1H-pyrazol-5-yl]oxy}-3-cyano-N-1,2,4-thiadiazol-5-ylbenzenesulfonamide] | >300 nM
2 | Cn1nc(-c2ccccc2)cc1Oc1ccc(S(=O)(=O)Nc2ncns2)cc1C#N [Example 82, 3-cyano-4-[(1-methyl-3-phenyl-1H-pyrazol-5-yl)oxy]-N-1,2,4-thiadiazol-5-ylbenzenesulfonamide] | 37200 nM
3 | CC(C)(C)n1ccc(-c2c(F)cccc2Oc2ccc(S(=O)(=O)Nc3ncns3)cc2C#N)n1 [Example 84, 4-[2-(1-tert-Butyl-1H-pyrazol-3-yl)-3-fluoro-phenoxy]-3-cyano-N-[1,2,4]thiadiazol-5-yl-benzene-sulfonamide] | >10000 nM
4 | N#Cc1cc(S(=O)(=O)Nc2ncco2)ccc1Oc1ccccc1-c1ccccc1 [Example 95, 4-(biphenyl-2-yloxy)-3-cyano-N-1,3-oxazol-2-ylbenzenesulfonamide] | >10000 nM
5 | COc1nsc(NS(=O)(=O)c2ccc(Oc3ccccc3-c3ccccc3)c(C#N)c2)n1 [Example 96, 4-(biphenyl-2-yloxy)-3-cyano-N-(3-methoxy-1,2,4-thiadiazol-5-yl)benzenesulfonamide] | 12500 nM
6 | N#Cc1cc(S(=O)(=O)Nc2cnsc2)ccc1Oc1ccccc1-c1ccccc1 [Example 99, 4-(biphenyl-2-yloxy)-3-cyano-N-isothiazol-4-ylbenzenesulfonamide] | >10000 nM and 24900 nM
7 | Cc1cnc(NS(=O)(=O)c2ccc(Oc3ccccc3-c3ccccc3)c(C#N)c2)s1 [Example 100, 4-(biphenyl-2-yloxy)-3-cyano-N-(5-methyl-1,3-thiazol-2-yl)benzenesulfonamide] | 3170 nM
8 | CCc1nsc(NS(=O)(=O)c2ccc(Oc3ccccc3-c3ccccc3)c(C#N)c2)n1 [Example 102, 4-(biphenyl-2-yloxy)-3-cyano-N-(3-ethyl-1,2,4-thiadiazol-5-yl)benzenesulfonamide] | >10000 nM
9 | N#Cc1cc(S(=O)(=O)Nc2ccncn2)ccc1Oc1ccccc1-c1ccccc1 [Example 106, 4-(biphenyl-2-yloxy)-3-cyano-N-pyrimidin-4-ylbenzenesulfonamide] | 4160 nM
10 | N#Cc1cc(S(=O)(=O)Nc2cnoc2)ccc1Oc1ccccc1-c1ccccc1 [Example 108, 4-(biphenyl-2-yloxy)-3-cyano-N-isoxazol-4-ylbenzenesulfonamide] | >10000 nM
11 | N#Cc1cc(S(=O)(=O)Nc2ccon2)ccc1Oc1ccccc1-c1ccccc1 [Example 110, 4-(biphenyl-2-yloxy)-3-cyano-N-isoxazol-3-ylbenzenesulfonamide] | 4270 nM
12 | N#Cc1cc(S(=O)(=O)Nc2ccccc2C(F)(F)F)ccc1Oc1ccccc1-c1ccccc1 [Example 111, 4-(biphenyl-2-yloxy)-3-cyano-N-[2-(trifluoromethyl)phenyl]benzenesulfonamide] | >3000 nM
13 | Cc1snnc1NS(=O)(=O)c1ccc(Oc2ccccc2-c2ccccc2)c(C#N)c1 [Example 112, 4-(biphenyl-2-yloxy)-3-cyano-N-(5-methyl-1,2,3-thiadiazol-4-yl)benzenesulfonamide] | 33700 nM
14 | Cn1ccnc1NS(=O)(=O)c1ccc(Oc2ccccc2-c2ccccc2)c(C#N)c1 [Example 113, 4-(biphenyl-2-yloxy)-3-cyano-N-(1-methyl-1H-imidazol-2-yl)benzenesulfonamide] | 12900 nM
15 | N#Cc1cc(S(=O)(=O)Nc2ccccc2)ccc1Oc1ccccc1-c1ccccc1 [Example 114, 4-(biphenyl-2-yloxy)-3-cyano-N-phenylbenzenesulfonamide] | >10000 nM
16 | N#Cc1cc(S(=O)(=O)Nc2cc(C(F)(F)F)ncn2)ccc1Oc1ccccc1-c1ccccc1 [Example 115, 4-(biphenyl-2-yloxy)-3-cyano-N-[6-(trifluoromethyl)pyrimidin-4-yl]benzenesulfonamide] | >10000 nM
17 | N#Cc1cc(S(=O)(=O)Nc2ncc[nH]2)ccc1Oc1ccccc1-c1ccccc1 [Example 117, 4-(biphenyl-2-yloxy)-3-cyano-N-1H-imidazol-2-ylbenzenesulfonamide] | 19200 nM
18 | Cc1nn(C)c(C)c1Cc1ccc(Oc2ccc(S(=O)(=O)Nc3nccs3)cc2F)cc1 [Example 118, 3-fluoro-N-1,3-thiazol-2-yl-4-{4-[(1,3,5-trimethyl-1H-pyrazol-4-yl)methyl]phenoxy}benzenesulfonamide] | 18400 nM
19 | O=S(=O)(Nc1nccs1)c1ccc(Oc2cccc(OCc3ccccc3)c2)c(F)c1 [Example 119, 4-[3-(benzyloxy)phenoxy]-3-fluoro-N-1,3-thiazol-2-ylbenzenesulfonamide] | 17700 nM

More lines, in order of falling IC50, values ahead:

Row | IC50 | Compound
20 | 3110 nM | N#Cc1cc(S(=O)(=O)Nc2ccnc(C(F)(F)F)n2)ccc1Oc1ccccc1-c1ccccc1 [Example 116, 4-(biphenyl-2-yloxy)-3-cyano-N-[2-(trifluoromethyl)pyrimidin-4-yl]benzenesulfonamide]
21 | 2670 nM | N#Cc1cc(S(=O)(=O)Nc2cncs2)ccc1Oc1ccccc1-c1ccccc1 [Example 105, 4-(biphenyl-2-yloxy)-3-cyano-N-1,3-thiazol-5-ylbenzenesulfonamide]
22 | 2450 nM | CC(C)(C)n1nccc1-c1c(F)cccc1Oc1ccc(S(=O)(=O)Nc2ncns2)cc1C#N [Example 83, 4-[2-(1-tert-butyl-1H-pyrazol-5-yl)-3-fluorophenoxy]-3-cyano-N-1,2,4-thiadiazol-5-ylbenzenesulfonamide]
23 | 2320 nM | N#Cc1cc(S(=O)(=O)Nc2cscn2)ccc1Oc1ccccc1-c1ccccc1 [Example 97, 4-(biphenyl-2-yloxy)-3-cyano-N-1,3-thiazol-4-ylbenzenesulfonamide]
24 | 2250 nM | N#Cc1cc(S(=O)(=O)Nc2nncs2)ccc1Oc1ccccc1-c1ccccc1 [Example 104, 4-(biphenyl-2-yloxy)-3-cyano-N-1,3,4-thiadiazol-2-ylbenzenesulfonamide]
25 | 2180 nM | N#Cc1cc(S(=O)(=O)Nc2ncns2)ccc1Oc1cc(Cc2ccc(Cl)cc2)nn1CCO [Example 94, 4-{[3-(4-chlorobenzyl)-1-(2-hydroxyethyl)-1H-pyrazol-5-yl]oxy}-3-cyano-N-1,2,4-thiadiazol-5-ylbenzenesulfonamide]
26 | 1880 nM | Cn1nccc1-c1c(F)cccc1Oc1ccc(S(=O)(=O)Nc2ncns2)cc1C#N [Example 86, 3-cyano-4-[3-fluoro-2-(1-methyl-1H-pyrazol-5-yl)phenoxy]-N-1,2,4-thiadiazol-5-ylbenzenesulfonamide]
27 | 1810 nM | CCOC(=O)Cn1nc(Cc2ccc(Cl)cc2)cc1Oc1ccc(S(=O)(=O)Nc2ncns2)cc1C#N [Example 92, 3-(4-chloro-benzyl)-5-{2-cyano-4-(1,2,4-thiadiazol-5-ylsulfamoyl)-phenoxy}-pyrazol-1-yl-acetic acid ethyl ester]
28 | 1600 nM | N#Cc1cc(S(=O)(=O)Nc2ncns2)ccc1Oc1cc(C2CC2)nn1-c1cc(F)ccc1F [Example 87, 3-cyano-4-{[3-cyclopropyl-1-(2,5-difluorophenyl)-1H-pyrazol-5-yl]oxy}-N-1,2,4-thiadiazol-5-ylbenzenesulfonamide]
29 | 1580 nM | Cc1csc(NS(=O)(=O)c2ccc(Oc3ccccc3-c3ccccc3)c(C#N)c2)n1 [Example 101, 4-(biphenyl-2-yloxy)-3-cyano-N-(4-methyl-1,3-thiazol-2-yl)benzenesulfonamide]
30 | 1570 nM | N#Cc1cc(S(=O)(=O)Nc2ncns2)ccc1Oc1cc(Cc2ccc(Cl)cc2)nn1CC(N)=O [Example 93, 2-[3-(4-chlorobenzyl)-5-{2-cyano-4-[(1,2,4-thiadiazol-5-ylamino)sulfonyl]phenoxy}-1H-pyrazol-1-yl]acetamide]
31 | 1430 nM | Cn1ccc(-c2c(F)cccc2Oc2ccc(S(=O)(=O)Nc3ncns3)cc2C#N)n1 [Example 85, 3-Cyano-4-[3-fluoro-2-(1-methyl-1H-pyrazol-3-yl)-phenoxy]-N-[1,2,4]thiadiazol-5-yl-benzene-sulfonamide]
32 | 1300 nM | Cc1nsc(NS(=O)(=O)c2ccc(Oc3ccccc3-c3ccccc3)c(C#N)c2)n1 [Example 103, 4-(biphenyl-2-yloxy)-3-cyano-N-(3-methyl-1,2,4-thiadiazol-5-yl)benzenesulfonamide]
33 | 1120 nM | Cn1nccc1-c1cc(CO)ccc1Oc1ccc(S(=O)(=O)Nc2ncns2)cc1C#N [Example 91, 3-cyano-4-(4-(hydroxymethyl)-2-(1-methyl-1H-pyrazol-5-yl)phenoxy)-N-(1,2,4-thiadiazol-5-yl)benzenesulfonamide]
34 | 680 nM | N#Cc1cc(S(=O)(=O)Nc2ncns2)ccc1Oc1cccc(F)c1-c1ccn[nH]1 [Example 89, 3-cyano-4-[3-fluoro-2-(2H-pyrazol-3-yl)-phenoxy]-N-[1,2,4]thiadiazol-5-yl-benzenesulfonamide]
35 | 600 nM | Cc1ccc(Oc2ccc(C#N)cc2)c(Oc2ccc(S(=O)(=O)Nc3ncns3)cc2C#N)c1 [Example 78, 3-cyano-4-[2-(4-cyanophenoxy)-5-methylphenoxy]-N-1,2,4-thiadiazol-5-ylbenzenesulfonamide]
36 | 510 nM | N#Cc1cc(S(=O)(=O)Nc2ncns2)ccc1Oc1cc(C(F)(F)F)nn1-c1ccccc1 [Example 81, 3-cyano-4-{[1-phenyl-3-(trifluoromethyl)-1H-pyrazol-5-yl]oxy}-N-1,2,4-thiadiazol-5-ylbenzenesulfonamide]
37 | 450 nM | N#Cc1cc(S(=O)(=O)Nc2ncns2)ccc1Oc1ccc(Cl)cc1Oc1ccccc1 [Example 79, 4-(4-chloro-2-phenoxyphenoxy)-3-cyano-N-1,2,4-thiadiazol-5-ylbenzenesulfonamide]
38 | 270 nM | N#Cc1cc(S(=O)(=O)Nc2ncns2)ccc1Oc1cc(C(F)(F)F)nn1-c1ccccc1F [Example 88, 3-cyano-4-{[1-(2-fluorophenyl)-3-(trifluoromethyl)-1H-pyrazol-5-yl]oxy}-N-1,2,4-thiadiazol-5-ylbenzenesulfonamide]
39 | 100 nM | N#Cc1cc(S(=O)(=O)Nc2ncns2)ccc1Oc1ccc(Cl)cc1-c1ccnn1CCO [Example 90, 4-(4-chloro-2-(1-(2-hydroxyethyl)-1H-pyrazol-5-yl)phenoxy)-3-cyano-N-(1,2,4-thiadiazol-5-yl)benzenesulfonamide]
